Experiments:
[1] = rodents and humans; cited from earlier work
SGLT1 transporter = target: T1, SGLT1 transporter (Homo sapiens, UniProt P13866); assay: Phase 1 multiple ascending dose clinical study: pharmacodynamics; format: in vivo
T1 construct: from tissue; host or cells: intestine of human subjects with T2DM (in vivo clinical study)
T1 sequence (P13866 1-664): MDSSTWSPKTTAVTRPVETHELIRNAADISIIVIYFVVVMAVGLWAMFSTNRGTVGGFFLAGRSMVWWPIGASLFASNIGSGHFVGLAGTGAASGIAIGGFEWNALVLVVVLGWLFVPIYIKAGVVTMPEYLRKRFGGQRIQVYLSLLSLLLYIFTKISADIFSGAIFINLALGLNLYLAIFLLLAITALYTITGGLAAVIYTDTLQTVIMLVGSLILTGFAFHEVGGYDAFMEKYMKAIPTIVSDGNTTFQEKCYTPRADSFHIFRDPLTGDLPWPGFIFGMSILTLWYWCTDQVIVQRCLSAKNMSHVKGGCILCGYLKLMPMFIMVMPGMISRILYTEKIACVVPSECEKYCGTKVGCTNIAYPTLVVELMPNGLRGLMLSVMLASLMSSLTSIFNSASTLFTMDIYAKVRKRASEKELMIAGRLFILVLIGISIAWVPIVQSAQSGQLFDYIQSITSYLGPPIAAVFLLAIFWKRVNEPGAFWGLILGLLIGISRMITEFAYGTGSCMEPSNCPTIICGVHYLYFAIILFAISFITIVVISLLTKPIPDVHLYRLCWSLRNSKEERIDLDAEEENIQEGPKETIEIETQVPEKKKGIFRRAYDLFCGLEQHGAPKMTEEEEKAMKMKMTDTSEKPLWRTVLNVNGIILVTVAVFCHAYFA
Procedure: A phase 1 multiple ascending dose (MAD) clinical study of LX2761 in otherwise healthy subjects with type 2 diabetes (T2DM) was conducted, following an earlier, single ascending dose study of the compound's safety and tolerability. This study evaluated the safety and tolerability of orally administered LX2761 given qd (i.e., once daily) or bid (i.e., twice daily) for eight days, over a range of ascending multiple dose levels in subjects with T2DM. As secondary objectives, the study evaluated the PD and PK of LX2761. […] Subjects taking LX2761 were grouped into five cohorts: Cohort A=LX2761 dosed 0.4 mg qd for 4 days followed by LX2761 dosed 0.6 mg qd for 4 days; Cohort A2=LX2761 dosed 0.2 mg bid for 8 days; Cohort B=LX2761 dosed 0.6 mg qd for 4 days followed by LX2761 dosed 0.8 mg qd for 4 days; Cohort C=LX2761 dosed 0.6 mg qd for 4 days followed by LX2761 dosed 1.0 mg qd for 4 days; Cohort C1=LX2761 dosed 0.4 mg bid for 8 days.

[2] = tested on: subjects with type 2 diabetes (T2DM); assay: Phase 1 multiple ascending dose clinical study: bowel movement frequency and Bristol Stool Form (BSF) Scale; format: in vivo, human
Procedure: FIG. 2 provides a table with baseline Bristol Stool Form (BSF) Scale data for subjects taking placebo or LX2761 in a multiple ascending dose study.
(§1) A phase 1 multiple ascending dose (MAD) clinical study of LX2761 in otherwise healthy subjects with type 2 diabetes (T2DM) was conducted, following an earlier, single ascending dose study of the compound's safety and tolerability.
(§2) This study evaluated the safety and tolerability of orally administered LX2761 given qd (i.e., once daily) or bid (i.e., twice daily) for eight days, over a range of ascending multiple dose levels in subjects with T2DM. As secondary objectives, the study evaluated the PD and PK of LX2761. Of the 51 subjects enrolled in the study, 27 (52.9%) were male and 24 (47.1%) were female. Subject ages ranged from 41 to 65 years, with BMIs ranging from 20.1 to 39.8 kg/m^2.
(§3) Subjects taking LX2761 were grouped into five cohorts: Cohort A=LX2761 dosed 0.4 mg qd for 4 days followed by LX2761 dosed 0.6 mg qd for 4 days; Cohort A2=LX2761 dosed 0.2 mg bid for 8 days; Cohort B=LX2761 dosed 0.6 mg qd for 4 days followed by LX2761 dosed 0.8 mg qd for 4 days; Cohort C=LX2761 dosed 0.6 mg qd for 4 days followed by LX2761 dosed 1.0 mg qd for 4 days; Cohort C1=LX2761 dosed 0.4 mg bid for 8 days.
(§4) Reporting of TEAEs of diarrhea was not based on subject self-reporting. Given the mechanism of action of LX2761, osmotic diarrhea was expected to occur in all subjects receiving LX2761 based on either stool form or daily frequency. […] The study stopping rules defined gradation of diarrhea as follows: diarrhea of moderate intensity was defined as an increase of 4 to 5 stools/day over the normal pre-study count with moderate cramping that limits usual daily activity or may require simple therapeutic intervention; diarrhea of severe intensity was defined as an increase of 6 to 8 stools/day over the normal pre-study count with severe cramping or incontinence that prohibits usual daily activities or requires systemic drug therapy or other therapeutic intervention.

[3] = tested on: mice with STZ-induced diabetes; assay: Effect of LX2761 on glycemic control and cecal pH in mice with STZ-induced diabetes; format: in vivo; details: adult male mice with well-established diabetes, single daily doses 1.5 or 3 mg/kg by oral gavage
Procedure: FIGS. 1A-1F present data showing the effect of LX2761 on glycemic control in mice with STZ-induced diabetes. […] Glucose excursions among groups were compared as glucose AUC0-120 minutes values. […] On day 49, the final study day, samples were obtained to measure FIG. 1C fasting blood glucose; FIG. 1D plasma tGLP-1; and FIG. 1E cecal glucose, reported as the total amount of glucose recovered.
This study evaluated the effect of orally administered LX2761 on glycemic control in preclinical models.
Mice and Rats. All studies were performed at Lexicon Pharmaceuticals, Inc., in strict accordance with the recommendations in the Guide for the Care and Use of Laboratory Animals of the National institutes of Health. The protocols for all studies were approved by the Lexicon Institutional Animal Care and Use Committee (OLAW Assurance Number A4152-01; AAALAC International Accreditation Number 001025). General methods for mouse and rat care have been described elsewhere. […] For all in vivo studies, mice and rats were fed HGD because glucose must be a major source of dietary calories if the effects of SGLT1 inhibition on glucose homeostasis are to be evaluated. […]
Glucose-Containing Meal Challenge. […] Vehicle or LX2761 was administered by oral gavage at 8:00 AM once daily for 4 consecutive days; body weight and food consumption were measured daily. […]

[4] = tested on: subjects with type 2 diabetes (T2DM); assay: Phase 1 multiple ascending dose clinical study: safety and tolerability; format: in vivo, human
Procedure: as §1, §2, §3, §4

[5] = Phase 1 multiple ascending dose clinical study: pharmacokinetics; format: in vivo, human
Procedure: as §1, §2, §3

[6] = T2DM subjects, oral qd or bid for eight days

CS[C@H]1O[C@@H](c2ccc(C)c(Cc3ccc(CCCC(=O)NC(C)(C)C(=O)NCCN(C)C)cc3)c2)[C@H](O)[C@@H](O)[C@@H]1O [LX2761, N-(1-((2-(dimethylamino)ethyl)-amino)-2-methyl-1-oxopropan-2-yl)-4-(4-(2-methyl-5-((2S,3R,4R,5S,6R)-3,4,5-trihydroxy-6-(methylthio)tetrahydro-2H-pyran-2-yl)benzyl)phenyl)butanamide]
systemic exposure [1]: very low systemic exposure | peptide YY (PYY) after dosing (SGLT1 transporter; [6]): increases | total glucagon-like peptide 1 (GLP-1) after dosing (SGLT1 transporter; [6]): increases | least squares (LS) mean UGE0-24 versus Baseline (SGLT1 transporter; all LX2761 cohorts, at some time points): decreased from Baseline | difference from placebo in change from Baseline in postprandial glucose (PPG) concentration AUC0-3 (SGLT1 transporter; any LX2761 cohort): No statistically significant differences from placebo | difference from placebo in change from Baseline in urinary glucose excretion from 0 to 24 hours (UGE0-24) (SGLT1 transporter; any LX2761 cohort): No statistically significant differences from placebo | PPG concentration AUC0-3 versus Baseline (SGLT1 transporter; each LX2761 cohort except Cohort A2, at most assessment time points): reduced from Baseline | subjects with BMs graded as BSF Scale Type 6 or 7 ([2]; all LX2761 cohorts but Cohort B, on at least one day through Day 8): ≥ 50% | increase in mean stool frequency per day from Baseline ([2]; all LX2761 cohorts, on at least one day through Day 8): > 0.5 BM | frequency of subjects with 2 or 3 BMs graded as BSF Scale Type 6 or 7 on a single day, versus placebo-treated subjects ([2]; all LX2761 cohorts, through Day 8): higher | change in BMs meeting study criteria of moderate or severe diarrhea ([2]; human, in vivo): No change in BMs meeting these criteria of moderate or severe diarrhea was reported | glycemic control ([3]; FIG. 1): improved glycemic control | cecal pH ([3]; FIG. 1F): reduced cecal pH | changes in clinical laboratory evaluations, vital signs, physical examination findings, or ECG parameters [4, 6]: No clinically significant changes | intensity of reported TEAEs ([4]; all reported TEAEs): mild or moderate | severe cramping or other adverse effects associated with existing HE agents such as lactulose ([4]; human clinical trial, low doses): generally not attended by severe cramping or other adverse effects | severe TEAEs, SAEs, deaths, or discontinuations due to TEAEs ([4]; human, in vivo): No severe TEAEs, SAEs (serious adverse events), deaths, or discontinuations due to TEAEs occurred | most frequently reported TEAEs ([4]; mainly nausea, vomiting, and abdominal pain): gastrointestinal (GI) events | number of TEAEs assessed as moderate in intensity ([4]; of 25 TEAEs, reported by 6 subjects treated with LX2761): 9 TEAEs | concentrations after the first dose (exposure) ([5]; after the first dose): mostly BLQ | increase in exposure (AUC and Cmax) ([5]; ascending dose levels, moderate to high variability): generally dose-related | absorption ([5]; oral solution): rapid absorption
